Data reported in the NIST ThermoML archive (doi:10.1016/j.jct.2019.04.018).
± gives the expanded uncertainty stated by the source.

What was measured:
[1] = 100 kPa, Liquid; for viscosity: Capillary tube (Ostwald / Ubbelohde) method; for speed of sound: Frequency=2 MHz, Single path-length method; for mass density: Vibrating tube method
[2] = xn = mol fraction of the nth substance listed; conditions: 100 kPa, Liquid; for viscosity: Capillary tube (Ostwald / Ubbelohde) method; for speed of sound: Frequency=2 MHz, Single path-length method; for mass density: Vibrating tube method

SMILES | viscosity ([1]; 303.15 K) [mPa·s] | speed of sound ([1]; 303.15 K) [m/s] | mass density ([1]; 303.15 K) [kg/m3] | viscosity ([1]; 308.15 K) [mPa·s] | speed of sound ([1]; 308.15 K) [m/s] | mass density ([1]; 308.15 K) [kg/m3] | viscosity ([1]; 313.15 K) [mPa·s] | speed of sound ([1]; 313.15 K) [m/s] | mass density ([1]; 313.15 K) [kg/m3] | other results
C=COCCCC [1-(ethenyloxy)butane] | 0.386 ± 0.015 | 1086 ± 6 | 769 ± 1.2 | 0.373 ± 0.015 | 1076 ± 6 | 763.9 ± 1.2 | 0.352 ± 0.015 | 1066 ± 6 | 758.8 ± 1.2 | 
COc1ccccc1 [anisole] | 0.929 ± 0.015 | 1386 ± 5 | 984.4 ± 1.1 | 0.849 ± 0.015 | 1366 ± 5 | 979.8 ± 1.1 | 0.788 ± 0.015 | 1348 ± 5 | 975 ± 1.1 | 
COc1ccccc1 [anisole] + C=COC(C)=O |  |  |  |  |  |  |  |  |  | viscosity ([2]; 303.15 K, x2 = 0): 0.929 ± 0.015 mPa·s; speed of sound ([2]; 303.15 K, x2 = 0): 1386 ± 5 m/s; mass density ([2]; 303.15 K, x2 = 0): 984.4 ± 1.1 kg/m3; viscosity ([2]; 308.15 K, x2 = 0): 0.849 ± 0.015 mPa·s; speed of sound ([2]; 308.15 K, x2 = 0): 1366 ± 5 m/s; mass density ([2]; 308.15 K, x2 = 0): 979.8 ± 1.1 kg/m3; viscosity ([2]; 313.15 K, x2 = 0): 0.788 ± 0.015 mPa·s; speed of sound ([2]; 313.15 K, x2 = 0): 1348 ± 5 m/s; mass density ([2]; 313.15 K, x2 = 0): 975 ± 1.1 kg/m3
CC(C)OC(C)C [diisopropyl ether] | 0.301 ± 0.014 | 982 ± 6 | 713.1 ± 1.2 | 0.287 ± 0.014 | 962 ± 6 | 707.9 ± 1.2 | 0.276 ± 0.014 | 942 ± 6 | 702.5 ± 1.2 | 
CC(C)OC(C)C [diisopropyl ether] + C=COC(C)=O |  |  |  |  |  |  |  |  |  | viscosity ([2]; 303.15 K, x2 = 0): 0.301 ± 0.014 mPa·s; speed of sound ([2]; 303.15 K, x2 = 0): 982 ± 6 m/s; mass density ([2]; 303.15 K, x2 = 0): 713.1 ± 1.2 kg/m3; viscosity ([2]; 308.15 K, x2 = 0): 0.287 ± 0.014 mPa·s; speed of sound ([2]; 308.15 K, x2 = 0): 962 ± 6 m/s; mass density ([2]; 308.15 K, x2 = 0): 707.9 ± 1.2 kg/m3; viscosity ([2]; 313.15 K, x2 = 0): 0.276 ± 0.014 mPa·s; speed of sound ([2]; 313.15 K, x2 = 0): 942 ± 6 m/s; mass density ([2]; 313.15 K, x2 = 0): 702.5 ± 1.2 kg/m3
C=COC(C)=O [vinyl acetate] | 0.388 ± 0.014 | 1092 ± 5 | 919.4 ± 1.1 | 0.37 ± 0.014 | 1074 ± 5 | 913.5 ± 1.1 | 0.352 ± 0.014 | 1054 ± 5 | 907.3 ± 1.1 | 
C=COC(C)=O [vinyl acetate] + C=COCCCC |  |  |  |  |  |  |  |  |  | viscosity ([2]; 303.15 K, x1 = 1): 0.388 ± 0.014 mPa·s; speed of sound ([2]; 303.15 K, x1 = 1): 1092 ± 5 m/s; mass density ([2]; 303.15 K, x1 = 1): 919.4 ± 1.1 kg/m3; viscosity ([2]; 308.15 K, x1 = 1): 0.37 ± 0.014 mPa·s; speed of sound ([2]; 308.15 K, x1 = 1): 1074 ± 5 m/s; mass density ([2]; 308.15 K, x1 = 1): 913.5 ± 1.1 kg/m3; viscosity ([2]; 313.15 K, x1 = 1): 0.352 ± 0.014 mPa·s; speed of sound ([2]; 313.15 K, x1 = 1): 1054 ± 5 m/s; mass density ([2]; 313.15 K, x1 = 1): 907.3 ± 1.1 kg/m3
